Measured values: patent US4312874A, “Antibacterial compounds, processes for their preparation and compositions containing them” (Beecham Group Limited, priority 1979, dated 1982)
Where two headings read alike, the source gives them in different places.

How the values were obtained:
[1] = system: M. suipneumoniae JF 435; experiment: in vitro MIC by serial dilution in Friis modified agarose medium; assay type: cell-based; details: Mesomycoplasma hyopneumoniae, JF435; Table 3
[2] = system: M. suipneumoniae Str. 11; experiment: as above; assay type: cell-based; details: Mesomycoplasma hyopneumoniae, Table 3
[3] = Serum binding by ultrafiltration; assay type: in vitro ADME; details: pig, 8 mcg/ml, read-out: % Bound to Pig Serum (converted)
Experimental: Serum binding was assessed by ultrafiltration of procine serum containing compounds at 8 mcg/ml, and through an Amicon CF50A ultrafiltration cone. Separation of ultrafiltrate was achieved by centrifugation. Unbound concentrations of compound were measured in the ultrafiltrate by microbiological assay (B. subtilis ATCC 6633) against standards prepared in saline.

[4] = system: M. suipneumoniae LABER; experiment: in vitro MIC by serial dilution in Friis modified agarose medium; assay type: cell-based; details: Mesomycoplasma hyopneumoniae; Table 3
[5] = system: Strep. pyogenes C 2761; experiment: MIC by serial dilution in nutrient agar with 5% chocolated horse blood; assay type: cell-based; details: Streptococcus pyogenes, C2761; Table 1
[6] = system: Staph. aureus Russell; experiment: as above; assay type: cell-based; details: Staphylococcus aureus; Table 1
[7] = system: Bacillus subtilis 6633; experiment: as above; assay type: cell-based; details: Table 1
[8] = system: M. bovis NCTC 10131; experiment: microbe, parasite or virus in culture; assay type: cell-based; details: NCTC10131
[9] = system: Sarcina lutea 8340; experiment: MIC by serial dilution in nutrient agar with 5% chocolated horse blood; assay type: cell-based; details: Micrococcus luteus
[10] = system: M. gallisepticum S6; experiment: in vitro MIC by serial dilution in Friis modified agarose medium; assay type: cell-based; details: Mycoplasmoides gallisepticum, Table 3
[11] = system: Staph. aureus B4 (pen resis); experiment: MIC by agar dilution, veterinary bacteria; details: Staphylococcus aureus, 24 h
[12] = system: M. suipneumoniae TAM 6N; experiment: in vitro MIC by serial dilution in Friis modified agarose medium; assay type: cell-based; details: Mesomycoplasma hyopneumoniae, TAM6N; Table 3
[13] = system: M.suipneumoniae NB12; experiment: as above; assay type: cell-based; details: Mesomycoplasma hyopneumoniae, Table 3
[14] = system: M. siupneumoniae HK(2); experiment: as above; assay type: cell-based; details: Table 3
[15] = system: Strep. uberis SPU1; experiment: MIC by agar dilution, veterinary bacteria; details: Streptococcus uberis, SPU1, 24 h
[16] = system: M. hyorhinis ATCC 25021; experiment: in vitro MIC by serial dilution in Friis modified agarose medium; assay type: cell-based; details: Mesomycoplasma hyorhinis, ATCC25021; Table 3
[17] = system: Strep. suis (group D) SPS11; experiment: MIC by agar dilution, veterinary bacteria; details: Streptococcus suis, 24 h
[18] = system: Past. multocida PA1; experiment: MIC by agar dilution, veterinary bacteria; details: Pasteurella multocida, PA1, 24 h
[19] = system: Staph. aureus 152 (pen sens); experiment: MIC by agar dilution, veterinary bacteria; details: Staphylococcus aureus, 24 h
[20] = system: P. mirabilis 889; experiment: MIC by serial dilution in nutrient agar with 5% chocolated horse blood; assay type: cell-based; details: Proteus mirabilis
[21] = system: Past. haemolytica PA5; experiment: MIC by agar dilution, veterinary bacteria; details: Mannheimia haemolytica, PA5, 24 h
[22] = system: Strep. dysgalactiae SPD1; experiment: MIC by agar dilution, veterinary bacteria; details: Streptococcus dysgalactiae, SPD1, 24 h
[23] = system: Pasteurella multocida 1633; experiment: MIC by serial dilution in nutrient agar with 5% chocolated horse blood; assay type: cell-based; details: Table 1
[24] = system: E. coli E1; experiment: MIC by agar dilution, veterinary bacteria; details: Escherichia coli, E1, 24 h
[25] = system: M. suipneumoniae ATCC 25095; experiment: in vitro MIC by serial dilution in Friis modified agarose medium; assay type: cell-based; details: Mesomycoplasma hyopneumoniae, ATCC25095; Table 3
[26] = system: Erysipelothrix rhusiopathiae NCTC 8163; experiment: MIC by agar dilution, veterinary bacteria; details: NCTC8163, 24 h
[27] = system: Staph. aureus Oxford; experiment: MIC by serial dilution in nutrient agar with 5% chocolated horse blood; assay type: cell-based; details: Staphylococcus aureus; Table 1
[28] = system: M. suipneumoniae J2206/183b; experiment: in vitro MIC by serial dilution in Friis modified agarose medium; assay type: cell-based; details: Mesomycoplasma hyopneumoniae, Table 3
[29] = system: M. suipneumoniae PW/C/210; experiment: as above; assay type: cell-based; details: Mesomycoplasma hyopneumoniae; Table 3
[30] = system: E. coli NCTC 10418; experiment: MIC by agar dilution, veterinary bacteria; details: Escherichia coli, NCTC10418, 24 h
[31] = system: Strep. pneumoniae CN33; experiment: MIC by serial dilution in nutrient agar with 5% chocolated horse blood; assay type: cell-based; details: Streptococcus pneumoniae, Table 1
[32] = system: Ps. aeruginosa 10662; experiment: as above; assay type: cell-based; details: Pseudomonas aeruginosa
[33] = system: K. aerogenes A; experiment: as above; assay type: cell-based; details: Klebsiella aerogenes
[34] = system: Strep. faecalis; experiment: as above; assay type: cell-based; details: Enterococcus faecalis
[35] = system: M. suipneumoniae MS 16; experiment: in vitro MIC by serial dilution in Friis modified agarose medium; assay type: cell-based; details: Mesomycoplasma hyopneumoniae, MS16; Table 3
[36] = system: Strep. agalactiae SPA1; experiment: MIC by agar dilution, veterinary bacteria; details: Streptococcus agalactiae, SPA1, 24 h
[37] = system: Past. multocida PA2; experiment: MIC by agar dilution, veterinary bacteria; details: Pasteurella multocida, PA2, 24 h
[38] = system: M. suipneumoniae NCTC 10110; experiment: in vitro MIC by serial dilution in Friis modified agarose medium; assay type: cell-based; details: Mesomycoplasma hyopneumoniae, NCTC10110; Table 3
[39] = system: M. hyosnoviae ATCC 25591; experiment: as above; assay type: cell-based; details: Table 3
[40] = system: Staph. aureus W2827; experiment: MIC by serial dilution in nutrient agar with 5% chocolated horse blood; assay type: cell-based; details: Staphylococcus aureus, Table 1
[41] = system: Strep. pyogenes B 2788; experiment: as above; assay type: cell-based; details: Streptococcus pyogenes, B2788; Table 1

CC(=O)C=C(C)CC1OCC(CC2OC2C(C)C(C)O)C(O)C1O [Example 1, 1-[3R,4R-Dihydroxy-5S-(2S,3S-epoxy-5S-hydroxy-4S-methylhexyl)-2,3,5,6-tetrahydropyran-2-S-yl]-2-methylpent-2E-en-4-one]
0.852: fraction unbound [3]
> 100 µg/mL: MIC ([9]; Table 1, read-out: MIC) | MIC ([32]; Table 1, read-out: MIC) | MIC ([33]; Table 1, read-out: MIC) | MIC ([34]; Table 1, read-out: MIC) | MIC [40]
80 µg/mL: MIC [22]
0.25 µg/mL: MIC [8]
> 80 µg/mL: MIC [17] | MIC [24] | MIC [26] | MIC [30] | MIC [36]
20 µg/mL: MIC [15]
100 µg/mL: MIC [5]
> 10 µg/mL: MIC [10] | MIC [12] | MIC [13] | MIC [14] | MIC [28] | MIC [38]
25 µg/mL: MIC [31]
1 µg/mL: MIC [27]
50 µg/mL: MIC ([20]; Table 1, read-out: MIC) | MIC [41]
10 µg/mL: MIC [1] | MIC [11] | MIC [16] | MIC [19] | MIC [21] | MIC [25] | MIC [29] | MIC [35]
5 µg/mL: MIC [2] | MIC [4] | MIC [6] | MIC [7] | MIC [18] | MIC [23] | MIC [37] | MIC [39]

CCC(=O)C=C(C)CC1OCC(CC2OC2C(C)C(C)O)C(O)C1O [Example 2, 1-[3R,4R-Dihydroxy-5S-(2S,3S-epoxy-5-S-hydroxy-4S-methylhexyl)tetrahydropyran-2S-yl]-2-methylhex-2E-en-4-one]
0.739: fraction unbound [3]
> 50 µg/mL: MIC [9] | MIC [20] | MIC [32] | MIC [33] | MIC [34]
5 µg/mL: MIC [1] | MIC [15] | MIC [21] | MIC [28] | MIC [38]
1.2 µg/mL: MIC [27]
12.5 µg/mL: MIC [31]
2.5 µg/mL: MIC [2] | MIC [4] | MIC [6] | MIC [7] | MIC [12] | MIC [13] | MIC [14] | MIC [16] | MIC [23] | MIC [25] | MIC [29] | MIC [35] | MIC [39] | MIC [40]
> 40 µg/mL: MIC [17] | MIC [24] | MIC [26] | MIC [30]
0.1 µg/mL: MIC [8]
20 µg/mL: MIC [22] | MIC [36]
0.625 µg/mL: MIC [11] | MIC [18]
25 µg/mL: MIC [5] | MIC [41]
> 10 µg/mL: MIC [10]
0.312 µg/mL: MIC [19] | MIC [37]

CCCCC(=O)C=C(C)CC1OCC(CC2OC2C(C)C(C)O)C(O)C1O [Example 3, 1-[3R,4R-Dihydroxy-5S-(2S,3S-epoxy-5S-hydroxy-4S-methylhexyl)tetrahydropyran-2S-yl]-2-methyloct-2E-en-4-one]
0.025 µg/mL: MIC [8]
0.25 µg/mL: MIC [39]
> 80 µg/mL: MIC [17] | MIC [24] | MIC [26] | MIC [30]
1.25 µg/mL: MIC [37]
2.5 µg/mL: MIC [5] | MIC [11] | MIC [15] | MIC [18] | MIC [19] | MIC [40] | MIC [41]
5 µg/mL: MIC [31]
> 100 µg/mL: MIC ([9]; Table 1, read-out: MIC) | MIC ([32]; Table 1, read-out: MIC) | MIC ([33]; Table 1, read-out: MIC) | MIC ([34]; Table 1, read-out: MIC)
1 µg/mL: MIC [1] | MIC [6] | MIC [12] | MIC [13] | MIC [14] | MIC [25] | MIC [27] | MIC [28] | MIC [38]
> 10 µg/mL: MIC [10]
100 µg/mL: MIC ([20]; Table 1, read-out: MIC)
0.5 µg/mL: MIC [2] | MIC [4] | MIC [7] | MIC [16] | MIC [23] | MIC [29] | MIC [35]
10 µg/mL: MIC [22] | MIC [36]
20 µg/mL: MIC [21]
0.469: fraction unbound [3]
